From PubChem BioAssay (NCI)
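All cell lines were grown in 96-well plates and treated with compound for 48 hours. The concentration for 50% growth inhibition is given as GI50. TGI: concentration producing complete growth inhibition.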

Columns and labels:
Experiment in all cases: growth of human tumour cells (NCI), 48 h
[1] = system: COLO 205 colon
[2] = system: K-562 leukemia
[3] = system: MOLT-4 leukemia
[4] = system: NCI-H460 lung
[5] = system: RPMI-8226 leukemia
[6] = system: SF-268 CNS
[7] = system: SN12C renal
[8] = system: TK-10 renal
[9] = system: HOP-92 NSCLC

Structure (SMILES) | TGI [1] | TGI [2] | TGI [3] | TGI [4] | TGI [5] | TGI [6] | TGI [7] | TGI [8] | TGI [9] | GI50 [1] | GI50 [9] | GI50 [6] | GI50 [7] | GI50 [8] | GI50 [2] | GI50 [3] | GI50 [4] | GI50 [5]
O=S1c2ccccc2N=C(c2cccs2)CC1c1ccccc1O (configuration not stated) | > 100 µM | > 100 µM | > 100 µM | > 100 µM | > 100 µM | > 100 µM | > 100 µM | > 100 µM | – | – | – | – | – | – | – | – | – | –
NC1=NN(c2ccccc2)C(=O)C1/C(=N\NC(=O)c1cc2ccccc2cc1O)C(=O)Nc1ccc(Cl)c(Cl)c1 (configuration not stated) | 36.6 µM | > 100 µM | 75.6 µM | 85.5 µM | > 100 µM | > 100 µM | > 100 µM | > 100 µM | 92 µM | – | – | – | – | – | – | – | – | –
COC(=O)/C(=C1\OC(=O)C(c2ccc(Cl)cc2)=C1O)c1ccc(Cl)cc1 | 45 µM | 86.9 µM | 65.5 µM | 92.4 µM | 55.2 µM | > 100 µM | > 100 µM | 75.5 µM | 50.4 µM | – | – | – | – | – | – | – | – | –
O=C1/C(=C/c2ccc(C(=O)O)cc2)CNC/C1=C\c1ccc(C(=O)O)cc1 | > 100 µM | > 100 µM | > 100 µM | > 100 µM | > 100 µM | > 100 µM | > 100 µM | > 100 µM | > 100 µM | – | – | – | – | – | – | – | – | –
C/C(COc1ccccc1)=N\NC(N)=S | > 100 µM | > 100 µM | > 100 µM | – | > 100 µM | > 100 µM | > 100 µM | > 100 µM | > 100 µM | – | – | – | – | – | – | – | – | –
O=Cc1cc2sc(C=O)cc2s1 | > 100 µM | > 100 µM | > 100 µM | > 100 µM | > 100 µM | > 100 µM | > 100 µM | > 100 µM | > 100 µM | – | – | – | – | – | – | – | – | –
CCCCCCCN(CCCCCCC)C(=N)c1ccc(OC)c2ccccc12 | 2.35 µM | – | – | – | – | 3.16 µM | 2.76 µM | 2.88 µM | 2.02 µM | 1.01 µM | 0.603 µM | 1.49 µM | 1.24 µM | 1.46 µM | – | – | – | –
CC(C)(C)c1cc([Si](C)(C)C)c(C#N)c([Si](C)(C)C)c1 | > 100 µM | > 100 µM | > 100 µM | > 100 µM | – | > 100 µM | > 100 µM | > 100 µM | > 100 µM | – | – | – | – | – | – | – | – | –
CCn1c(C)nc([N+](=O)[O-])c1Sc1ncc[nH]1 | > 100 µM | > 100 µM | 76.8 µM | > 100 µM | > 100 µM | > 100 µM | > 100 µM | > 100 µM | > 100 µM | – | – | – | – | – | – | – | – | –
Cc1cc(NCCCCCCCCNc2cc(C)nc3cc(N(C)C)ccc23)c2ccc(N(C)C)cc2n1 | 5.5 µM | 28.5 µM | > 100 µM | 19.5 µM | 17.2 µM | 26.9 µM | 21.5 µM | – | 8.04 µM | – | – | – | – | – | – | – | – | –
Clc1cc2ns[s+]c2cc1Cl | > 100 µM | > 100 µM | > 100 µM | > 100 µM | > 100 µM | > 100 µM | > 100 µM | 98.9 µM | > 100 µM | – | – | – | – | – | – | – | – | –
O=C(NNC(=O)/C(=C/c1cccc([N+](=O)[O-])c1)NC(=O)c1ccccc1)Nc1ccc(Cl)cc1 | 26.8 µM | 36.1 µM | 25.2 µM | 29.9 µM | 38.9 µM | 29.6 µM | 28.2 µM | 31.7 µM | 40.4 µM | – | – | – | – | – | – | – | – | –
CC1=NN(c2ccccc2)C(=O)C1N=Nc1ccc(Br)cc1C (configuration not stated) | > 100 µM | > 100 µM | > 100 µM | > 100 µM | > 100 µM | > 100 µM | > 100 µM | > 100 µM | > 100 µM | – | – | – | – | – | – | – | – | –
O=c1[nH]c(C2CCCCC2)nc2ccc(Cl)cc12 | > 100 µM | > 100 µM | > 100 µM | – | > 100 µM | > 100 µM | > 100 µM | > 100 µM | > 100 µM | – | – | – | – | – | – | – | – | –
CN1C(=O)CC(CC(=O)C2CCCCC2=O)CC1=O (configuration not stated) | > 100 µM | > 100 µM | > 100 µM | > 100 µM | > 100 µM | > 100 µM | > 100 µM | > 100 µM | > 100 µM | – | – | – | – | – | – | – | – | –
CCCCCCCC(=O)[O-].N.N.N.N.N.[Co+3].[O-][Cl+3]([O-])([O-])[O-] | > 100 µM | > 100 µM | > 100 µM | > 100 µM | > 100 µM | > 100 µM | > 100 µM | > 100 µM | > 100 µM | > 100 µM | > 100 µM | > 100 µM | > 100 µM | > 100 µM | > 100 µM | 53.5 µM | > 100 µM | > 100 µM
COc1ccc(C2[C@@H](Cl)C(=O)N2c2ccc(OC)cc2)cc1 (some centres not stated) | > 100 µM | > 100 µM | > 100 µM | > 100 µM | > 100 µM | > 100 µM | > 100 µM | > 100 µM | 39.5 µM | – | – | – | – | – | – | – | – | –
O=S(=O)(O)c1ccc([Se][Se]c2ccc(S(=O)(=O)O)cc2)cc1 | > 100 µM | > 100 µM | > 100 µM | > 100 µM | > 100 µM | > 100 µM | > 100 µM | > 100 µM | > 100 µM | – | – | – | – | – | – | – | – | –
